Laboratory results taken from ChEMBL document CHEMBL1201862, “PubChem BioAssay data set” (2004).
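Values below derive from 48-hour exposures of cells grown in 96-well plates, with endpoints linearly interpolated between the two concentrations bracketing the appropriate inhibition level. Abbreviation: GI50, concentration required for 50% inhibition of growth.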 Active and inactive are the calls of the source. Cut-off read from the data, not from the text of the source: active = GI50 up to about 1.1 µM and inactive = higher.

Assays:
Assay in all cases: NCI tumour cell line growth inhibition, 48 h
[1] = test system: EKVX
[2] = test system: HCC 2998
[3] = test system: HL-60
[4] = test system: IGROV-1
[5] = test system: M14
[6] = test system: MDA-MB-231
[7] = test system: MDA-MB-435
[8] = test system: MDA-N
[9] = test system: OVCAR-4
[10] = test system: OVCAR-5
[11] = test system: RPMI-8226
[12] = test system: SF-295
[13] = test system: SNB-19
[14] = test system: SW-620
[15] = test system: T47D
[16] = test system: TK-10
[17] = test system: U-251
[18] = test system: UACC-257
[19] = test system: UACC-62
[20] = test system: CCRF-CEM

SMILES	GI50 [1]	GI50 [2]	GI50 [3]	GI50 [4]	GI50 [5]	GI50 [6]	GI50 [7]	GI50 [8]	GI50 [9]	GI50 [10]	GI50 [11]	GI50 [12]	GI50 [13]	GI50 [14]	GI50 [15]	GI50 [16]	GI50 [17]	GI50 [18]	GI50 [19]	GI50 [20]
COc1cc(/C=C2\C[C@H]3[C@@H]4CC=C5C[C@@H](O)CC[C@]5(C)[C@H]4CC[C@]3(C)C2=O)cc(OC)c1OC	33.5 µM (inactive)	27.6 µM (inactive)	0.366 µM (active)	64.1 µM (inactive)	24.4 µM (inactive)	26.4 µM (inactive)	29.8 µM (inactive)	29.1 µM (inactive)	39.4 µM (inactive)	39.6 µM (inactive)	6.98 µM (inactive)	19 µM (inactive)	27.7 µM (inactive)	39.6 µM (inactive)	12.6 µM (inactive)	37.2 µM (inactive)	32.1 µM (inactive)	29.2 µM (inactive)	37.1 µM (inactive)	–
C\C(=N/N=C1/C(=C\N(C)C)C(=O)NC(=O)N1C)c1ccc(Cl)cc1	> 100 µM (inactive)	> 100 µM (inactive)	–	53 µM (inactive)	43.2 µM (inactive)	> 100 µM (inactive)	37.6 µM (inactive)	> 100 µM (inactive)	> 100 µM (inactive)	69.2 µM (inactive)	26.9 µM (inactive)	54.6 µM (inactive)	> 100 µM (inactive)	89.7 µM (inactive)	82.4 µM (inactive)	57.3 µM (inactive)	> 100 µM (inactive)	> 100 µM (inactive)	> 100 µM (inactive)	15.8 µM (inactive)
CN1CC[N+](C)=C1c1ccccc1	> 100 µM (inactive)	> 100 µM (inactive)	> 100 µM (inactive)	> 100 µM (inactive)	> 100 µM (inactive)	> 100 µM (inactive)	> 100 µM (inactive)	> 100 µM (inactive)	> 100 µM (inactive)	> 100 µM (inactive)	> 100 µM (inactive)	> 100 µM (inactive)	> 100 µM (inactive)	> 100 µM (inactive)	> 100 µM (inactive)	> 100 µM (inactive)	> 100 µM (inactive)	> 100 µM (inactive)	–	> 100 µM (inactive)
CCOC(=O)Cn1c(=O)ccn(COCCO)c1=O	> 100 µM (inactive)	> 100 µM (inactive)	> 100 µM (inactive)	> 100 µM (inactive)	> 100 µM (inactive)	> 100 µM (inactive)	> 100 µM (inactive)	> 100 µM (inactive)	> 100 µM (inactive)	> 100 µM (inactive)	> 100 µM (inactive)	–	> 100 µM (inactive)	> 100 µM (inactive)	> 100 µM (inactive)	> 100 µM (inactive)	> 100 µM (inactive)	> 100 µM (inactive)	–	> 100 µM (inactive)
CC(=O)Nc1cc2cc(N)ccc2oc1=O	> 100 µM (inactive)	> 100 µM (inactive)	> 100 µM (inactive)	> 100 µM (inactive)	> 100 µM (inactive)	> 100 µM (inactive)	> 100 µM (inactive)	> 100 µM (inactive)	> 100 µM (inactive)	> 100 µM (inactive)	> 100 µM (inactive)	> 100 µM (inactive)	> 100 µM (inactive)	> 100 µM (inactive)	> 100 µM (inactive)	> 100 µM (inactive)	> 100 µM (inactive)	> 100 µM (inactive)	–	> 100 µM (inactive)
COc1cc([C@@H]2c3cc4c(cc3[C@@H](Nc3ccc([N+](=O)[O-])cc3C(=O)c3ccccc3)[C@H]3COC(=O)[C@H]23)OCO4)cc(OC)c1OC	> 100 µM (inactive)	0.436 µM (active)	0.211 µM (active)	0.5 µM (active)	0.281 µM (active)	0.548 µM (active)	0.071 µM (active)	0.0687 µM (active)	> 41.8 µM (inactive)	0.555 µM (active)	0.394 µM (active)	0.196 µM (active)	0.603 µM (active)	0.233 µM (active)	> 100 µM (inactive)	> 100 µM (inactive)	0.354 µM (active)	–	0.164 µM (active)	0.391 µM (active)
CCO/C=N\C1=C(C#N)SC2=N/C(=C\c3ccc(OC)cc3)C(=O)N21	60.1 µM (inactive)	39.5 µM (inactive)	87.1 µM (inactive)	96.8 µM (inactive)	> 100 µM (inactive)	80.5 µM (inactive)	> 100 µM (inactive)	> 100 µM (inactive)	15.4 µM (inactive)	> 100 µM (inactive)	> 100 µM (inactive)	59.3 µM (inactive)	83.6 µM (inactive)	> 100 µM (inactive)	> 100 µM (inactive)	58.2 µM (inactive)	75.3 µM (inactive)	> 100 µM (inactive)	–	> 100 µM (inactive)
